SMILES strings stand for the structures.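 Each compound was tested at five concentrations against cells in 96-well plates for 48 hours. At the GI50, growth is halved. TGI: concentration producing complete growth inhibition.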

Test systems include SF-268 CNS; A549 NSCLC; OVCAR-5 ovarian; RPMI-8226 leukemia; SK-MEL-28 melanoma; HT29 colon; SNB-19 CNS; K-562 leukemia; 786-0 renal.
What all share (assay): inhibition of tumour cell growth, NCI panel, 48 h

Consider `O=C(O)CNS(=O)(=O)c1ccc(NC(=O)CI)cc1`, for which the TGI with SF-268 CNS is 44.3 µM; with A549 NSCLC it was over 100 µM; with OVCAR-5 ovarian, 61.1 µM; in the test with RPMI-8226 leukemia, 38.6 µM; in the test with SK-MEL-28 melanoma, 72.4 µM; in the test with HT29 colon, 54.4 µM. The TGI is over 100 µM with SNB-19 CNS, 62.1 µM in the test with K-562 leukemia and 28.6 µM in the test on 786-0 renal.
`O=C(O)CCSC(=O)Nc1ccccc1F`: the TGI in the test with SF-268 CNS, in the test on A549 NSCLC, with OVCAR-5 ovarian, in the test on RPMI-8226 leukemia, with SK-MEL-28 melanoma and in the test with HT29 colon was over 100 µM in each case. The TGI in the test on SNB-19 CNS, in the test on K-562 leukemia and with 786-0 renal was over 100 µM each time.
Take `C[N+]1(C)C/C(=C\c2ccccc2)C(=O)/C(=C/c2ccccc2)C1`: the TGI in the test on SF-268 CNS, in the test with A549 NSCLC, in the test with OVCAR-5 ovarian, in the test on RPMI-8226 leukemia, in the test on SK-MEL-28 melanoma and in the test with HT29 colon was over 100 µM in each case. Moreover, the TGI in the test with K-562 leukemia and in the test on 786-0 renal was over 100 µM in each case.
As to `C/C=C1/CCC2c3[nH]c4ccccc4c3CCN2C1` (configuration not stated), the TGI with SF-268 CNS, with A549 NSCLC, with OVCAR-5 ovarian, in the test with SK-MEL-28 melanoma, with HT29 colon and in the test with SNB-19 CNS was over 100 µM throughout. For the same compound, the TGI in the test on K-562 leukemia and in the test on 786-0 renal was over 100 µM throughout.
For `c1ccc2cc3[s+]snc3cc2c1`, the TGI in the test with SF-268 CNS, in the test on A549 NSCLC, in the test with OVCAR-5 ovarian, with SK-MEL-28 melanoma, in the test with HT29 colon and in the test on SNB-19 CNS was over 100 µM each time. Moreover, the TGI in the test with K-562 leukemia and in the test with 786-0 renal was over 100 µM each time.
For the compound `O=C1CCCC(=O)N1CCc1c[nH]c2ccccc12`, the TGI in the test with SF-268 CNS, in the test with A549 NSCLC, with OVCAR-5 ovarian, in the test on SK-MEL-28 melanoma, with HT29 colon and in the test with SNB-19 CNS was over 100 µM each time. The TGI in the test with K-562 leukemia and in the test with 786-0 renal was over 100 µM each time.
With `Fc1ccccc1C1SCc2nc3ccccc3n21` (configuration not stated), the TGI with SF-268 CNS, in the test with A549 NSCLC, in the test on OVCAR-5 ovarian, in the test with RPMI-8226 leukemia, with SK-MEL-28 melanoma and in the test on HT29 colon was over 100 µM in each case. Also, the TGI with SNB-19 CNS, with K-562 leukemia and in the test with 786-0 renal was over 100 µM in each case.
With `NCCN.NCCN.O=C([O-])CCl.O=C([O-])CCl.[Co+3].[O-][Cl+3]([O-])([O-])[O-]`, the GI50 in the test with SF-268 CNS, in the test on A549 NSCLC, in the test on OVCAR-5 ovarian, in the test with RPMI-8226 leukemia, in the test with SK-MEL-28 melanoma and in the test with HT29 colon was over 100 µM throughout. Besides, the GI50 in the test on SNB-19 CNS, in the test with K-562 leukemia and in the test on 786-0 renal was over 100 µM each time. Besides, the TGI in the test on SF-268 CNS, in the test on A549 NSCLC, with OVCAR-5 ovarian, in the test with RPMI-8226 leukemia, in the test on SK-MEL-28 melanoma and in the test on HT29 colon was over 100 µM in each case. Also, the TGI in the test with SNB-19 CNS, in the test with K-562 leukemia and in the test with 786-0 renal was over 100 µM each time.
In the case of `Clc1ccc2nnnn2n1`, the GI50 was 3.74 µM in the test with SF-268 CNS; 13.9 µM with A549 NSCLC; 4.7 µM in the test on OVCAR-5 ovarian; 3.54 µM in the test with RPMI-8226 leukemia; 12.3 µM in the test on SK-MEL-28 melanoma; 2.93 µM in the test on HT29 colon. Moreover, the figures for the GI50 with SNB-19 CNS, in the test on K-562 leukemia and with 786-0 renal were 31.8 µM, 2.77 µM and 3.73 µM, respectively. For the same compound, the TGI was 37.2 µM with SF-268 CNS; over 100 µM in the test on A549 NSCLC; 20.5 µM with OVCAR-5 ovarian; 28 µM in the test on RPMI-8226 leukemia; 63 µM in the test with SK-MEL-28 melanoma; 8.03 µM in the test with HT29 colon. In addition, the TGI is over 100 µM in the test with SNB-19 CNS, 17.4 µM with K-562 leukemia and over 100 µM in the test on 786-0 renal.
Take `Cc1ccc([N+](=O)[O-])cc1NC(=O)c1cccc([N+](=O)[O-])c1O`: the TGI was 83.9 µM in the test with SF-268 CNS; over 100 µM in the test with A549 NSCLC; 68.3 µM in the test on RPMI-8226 leukemia; 51.2 µM with SK-MEL-28 melanoma; over 100 µM in the test with HT29 colon; over 100 µM with SNB-19 CNS. For the same compound, the results for the TGI in the test with K-562 leukemia and in the test on 786-0 renal were 96.6 µM and over 100 µM, respectively.
As to `CNC(=O)CC1NC(=O)c2csc(n2)-c2ccc(-c3nc(C4=NC(C(=O)N5CCCC5C(N)=O)CO4)cs3)nc2-c2csc(n2)-c2csc(n2)C(C(C)C)NC(=O)CNC(=O)c2csc(n2)C(C(C)C)NC(=O)c2nc1sc2C` (configuration not stated), the GI50 in the test with SF-268 CNS was over 25 µM; in the test with A549 NSCLC, over 25 µM; in the test with RPMI-8226 leukemia, under 0.001 µM; in the test on HT29 colon it was under 0.001 µM; in the test with SNB-19 CNS it was over 25 µM; in the test with K-562 leukemia it was over 25 µM. For the same compound, the GI50 with 786-0 renal is over 25 µM. The TGI in the test with SF-268 CNS, with A549 NSCLC, with SK-MEL-28 melanoma, with SNB-19 CNS, with K-562 leukemia and with 786-0 renal was over 25 µM in each case.
For `Cc1[nH]c(=O)n2c(C)nnc2c1C(=O)Nc1cc(Cl)cc(Cl)c1`, the TGI was over 100 µM with SF-268 CNS; over 100 µM in the test with A549 NSCLC; over 100 µM with OVCAR-5 ovarian; over 100 µM in the test on RPMI-8226 leukemia; 60.8 µM in the test with SK-MEL-28 melanoma; over 100 µM in the test with HT29 colon. Also, the TGI in the test with K-562 leukemia and in the test on 786-0 renal was over 100 µM throughout.
Regarding `Cc1cc(NS(=O)(=O)c2ccc(NC(=O)c3ccc(Cl)c4c(Nc5ccc(S(=O)(=O)N=C(N)N)cc5)c5ccccc5nc34)cc2)no1`, the TGI with SF-268 CNS, with OVCAR-5 ovarian, with RPMI-8226 leukemia, in the test with SK-MEL-28 melanoma, in the test with HT29 colon and in the test on SNB-19 CNS was over 100 µM each time. The TGI in the test with K-562 leukemia and in the test with 786-0 renal was over 100 µM each time.

For the origin of these results see PubChem BioAssay (NCI).
